This note sets out measurements from EP0799218B1, “DIARYL-2-(5H)-FURANONES AS COX-2 INHIBITORS” (Merck Frosst Canada & Co., priority 1994, dated 1996).

In one assay the target is T1, Cox-2 (Homo sapiens, UniProt P35354).
T1 construct: endogenous in cells; host or cells: fresh heparinized human whole blood from volunteers, stimulated with LPS
T1 sequence (P35354 18-604 limits assumed): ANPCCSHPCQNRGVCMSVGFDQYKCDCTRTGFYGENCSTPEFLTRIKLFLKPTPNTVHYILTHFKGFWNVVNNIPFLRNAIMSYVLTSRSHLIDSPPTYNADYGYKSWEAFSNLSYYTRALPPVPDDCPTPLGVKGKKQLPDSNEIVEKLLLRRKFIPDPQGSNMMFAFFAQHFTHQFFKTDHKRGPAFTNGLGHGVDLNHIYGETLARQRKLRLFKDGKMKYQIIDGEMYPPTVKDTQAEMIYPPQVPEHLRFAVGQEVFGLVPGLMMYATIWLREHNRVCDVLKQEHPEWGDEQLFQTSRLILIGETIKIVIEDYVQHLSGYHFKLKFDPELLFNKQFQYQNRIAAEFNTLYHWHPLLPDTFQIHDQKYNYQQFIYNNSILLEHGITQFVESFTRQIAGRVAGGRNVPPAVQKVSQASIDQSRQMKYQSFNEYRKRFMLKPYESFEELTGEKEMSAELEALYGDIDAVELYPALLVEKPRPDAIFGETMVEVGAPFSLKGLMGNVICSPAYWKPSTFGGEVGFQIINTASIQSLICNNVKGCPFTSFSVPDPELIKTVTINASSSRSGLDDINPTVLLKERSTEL
Description: Human whole blood assay, Cox-2 (LPS-induced PGE2 production). The assay is classed as cell-based. Conditions: LPS 100 µg/ml, 24 hours at 37 °C, PGE2 by radioimmunoassay, read-out: HWB Cox-2 IC50. The protocol:
(§1) Human whole blood provides a protein and cell-rich milieu appropriate for the study of biochemical efficacy of anti-inflammatory compounds such as selective Cox-2 inhibitors. […] This is consistent with the observation that Cox-2 inhibitors have no effect on PGE2 production in normal blood. These inhibitors are active only after incubation of human whole blood with LPS (lipopolysaccharide), which induces Cox-2. This assay can be used to evaluate the inhibitory effect of selective Cox-2 inhibitors on PGE2 production: As well, platelets in whole blood contain a large amount of the Cox-1 enzyme. Immediately following blood clotting, platelets are activated through a thrombin-mediated mechanism. This reaction results in the production of thromboxane B2 (TxB2) via activation of Cox-1. Thus, the effect of test compounds on TxB2 levels levels following blood clotting can be examined and used as an index for Cox-1 activity. Therefore, the degree of selectivity by the test compound can be determined by measuring the levels of PGE2 after LPS induction (Cox-2) and TxB2 following blood clotting (Cox-1) in the same assay.
Fresh blood was collected in heparinized tubes by venipuncture from both male and female volunteers. The subjects had no apparent inflammatory conditions and had not taken any NSAIDs for at least 7 days prior to blood collection. Plasma was immediately obtained from a 2mL blood aliquot to use as blank (basal levels of PGE2). The remaining blood was incubated with LPS (100 µg/ml final concentration, Sigma Chem, #L-2630 from E. coli; diluted in 0.1% BSA-Phosphate buffered saline) for 5 minutes at room temperature. Five hundred µL aliquots of blood were incubated with either 2 µL vehicle (DMSO) or 2 µL of a test compound at final concentrations varying from 10nM to 30µM for 24 hours at 37 °C. At the end of the incubation, the blood was centrifuged at 12,000 x g for 5 minutes to obtain plasma. A 100 µL aliquot of plasma was mixed with 400 µL of methanol for protein precipitation. The supernatant was obtained and was assayed for PGE2 using a radioimmunoassay kit (Amersham, RPA#530) after conversion of PGE2 to its methyl oximate derivative according to the manufacturer's procedure.
(§2) Compounds of the present invention are inhibitors of cyclooxygenase-2 and are thereby useful in the treatment of cyclooxygenase-2 mediated diseases as enumerated above. The activities of the compounds against cyclooxygenase may be seen in the representative results shown below. In the assay, inhibition is determined by measuring the amount of prostaglandin E2 (PGE2) synthesized in the presence of arachidonic acid, cyclooxygenase-1 or cyclooxygenase-2 and a putative inhibitor. The IC50 values represent the concentration of putative inhibitor required to return PGE2 synthesis to 50% of that obtained as compared to the uninhibited control.

The target in the next assay is T2, Cox-1 (Homo sapiens, UniProt P23219).
T2 construct: platelets in whole blood contain a large amount of the Cox-1 enzyme; endogenous in cells; host or cells: platelets in fresh human whole blood, no anticoagulant, clotting for 1 hour at 37 °C
T2 sequence (P23219 24-599): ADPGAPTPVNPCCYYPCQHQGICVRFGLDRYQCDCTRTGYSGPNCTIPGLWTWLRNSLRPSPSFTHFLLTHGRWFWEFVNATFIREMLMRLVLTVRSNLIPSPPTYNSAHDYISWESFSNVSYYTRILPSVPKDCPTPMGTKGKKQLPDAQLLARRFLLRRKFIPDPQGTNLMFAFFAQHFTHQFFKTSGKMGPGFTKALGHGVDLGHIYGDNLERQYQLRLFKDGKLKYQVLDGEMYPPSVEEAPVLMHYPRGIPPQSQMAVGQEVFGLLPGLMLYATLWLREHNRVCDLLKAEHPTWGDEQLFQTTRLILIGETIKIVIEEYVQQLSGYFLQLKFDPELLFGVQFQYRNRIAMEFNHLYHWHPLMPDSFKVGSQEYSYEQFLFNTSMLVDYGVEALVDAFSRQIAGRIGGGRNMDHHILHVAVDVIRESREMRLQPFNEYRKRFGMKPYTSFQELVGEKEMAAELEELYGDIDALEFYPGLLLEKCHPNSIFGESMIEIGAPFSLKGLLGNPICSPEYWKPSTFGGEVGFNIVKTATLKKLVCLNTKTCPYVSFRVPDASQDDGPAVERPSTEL
Description: Human whole blood assay, Cox-1 (clotting-induced TxB2 production). The assay is classed as cell-based. As to conditions: clotting 1 hour at 37 °C, TxB2 by enzyme immunoassay, read-out: HWB Cox-1 IC50. Here is the method:
as §1
Fresh blood was collected into vacutainers containing no anticoagulants. Aliquots of 500 µL were immediately transferred to siliconized microcentrifuge tubes preloaded with 2 µL of either DMSO or a test compound at final concentrations varying from 10nM to 30 µM. The tubes were vortexed and incubated at 37 °C for 1 hour to allow blood to clot. At the end of incubation, serum was obtained by centrifugation (12,000 x g for 5 min.). A 100 µL aliquot of serum was mixed with 400 µL of methanol for protein precipitation. The supernatant was obtained and was assayed for TxB2 using a enzyme immunoassay kit (Cayman, #519031) according to the manufacturer's instruction.
as §2

The subject of the next assay is Rat Paw Edema. Description: Rat paw edema assay (carrageenan-induced). The class given is in vivo, Male Sprague-Dawley rats. Conditions: po, 1 hr before subplantar carrageenan, paw volume 3 hr later. The protocol: Male Sprague-Dawley rats (150 - 200 g) were fasted overnight and were given po either vehicle (1% methocel or 5% Tween 80) or a test compound. One hr later, a line was drawn using a permanent marker at the level above the ankle in one hind paw to define the area of the paw to be monitored. The paw volume (V0) was measured using a plethysmometer (Ugo-Basile, Italy) based on the principle of water displacement The animals were then injected subplantarly with 50 µl of 1% carrageenan solution in saline (FMC Corp, Maine) into the paw using an insulin syringe with a 25-gauge needle (i.e. 500 µg carrageenan per paw). Three hr later, the paw volume (V3) was measured and the increases in paw volume (V3 - V0) were calculated. The animals were sacrificed by CO2 aphyxiation and the absence or presence of stomach lesions scored. Data were compared with the vehicle-control values and percent inhibition calculated. Since a maximum of 60-70% inhibition (paw edema) was obtained with standard NSAIDs, ED30 values were used for comparison. All treatment groups were coded to eliminate observer bias.

Structures are written as SMILES.

As a reminder, the IC50 is the concentration needed to halve the response being measured. Consider `COc1cccc(C2=C(c3ccc(S(C)(=O)=O)cc3)C(C)(C)OC2=O)c1` [Example 2, 5,5-Dimethyl-3-(3-methoxyphenyl)-4-(4-(methylsulfonyl)phenyl)-2-(5H)-furanone], for which the IC50 was 810 nM at Cox-2 and above 30000 nM at Cox-1. Also, in the assay with Rat Paw Edema, the ED30 came to 0.3 mg/kg.

In the case of `CS(=O)(=O)c1ccc(C2=C(c3ccccc3)C(=O)OC23CC3)cc1` [Example 13, 7-(4-(Methylsulfonyl)phenyl)-6-phenyl-4-oxa-spiro[2,4]-hept-6-en-5-one], the results for the IC50 at Cox-2 and at Cox-1 were 600 nM and above 30000 nM, respectively. For the same compound, the ED30 in the assay with Rat Paw Edema is 0.3 mg/kg.

`CS(=O)(=O)c1ccc(C2=C(c3ccccc3)C(=O)OC2(CF)CF)cc1` [Example 14, 5,5-Bisfluoromethyl-3-phenyl-4-(4-(methylsulfonyl)phenyl)-2-(5H)-furanone]: the figures for the IC50 at Cox-2 and at Cox-1 were 1100 nM and above 30000 nM, respectively. This compound also gave an ED30 in the assay on Rat Paw Edema of 0.62 mg/kg.

As for `CC1(C)CC(c2ccc(S(C)(=O)=O)cc2)=C(c2ccccc2)C1=O` [Example 11, 5,5-Dimethyl-3-(4-(methylsulfonyl)phenyl)-2-phenylcyclopent-2-enone], the IC50 amounted to 60 nM at Cox-2 and 2200 nM on Cox-1. Further, the ED30 in the assay with Rat Paw Edema worked out at 1.17 mg/kg.

For `CS(=O)(=O)c1ccc(C2=C(c3ccccc3)C(=O)OC23CCCC3)cc1` [Example 10, 4-(4-(Methylsulfonyl)phenyl)-3-phenyl-1-oxa-spiro[4,4]non-3-en-2-one], the results for the IC50 at Cox-2 and at Cox-1 were 370 nM and 30000 nM, respectively. In the assay on Rat Paw Edema, this compound showed an ED30 of 0.41 mg/kg.

For the compound `CC1(C)OC(=O)C(c2ccccc2)=C1c1ccc(S(C)(=O)=O)cc1` [Example 4, 5,5-Dimethyl-4-(4-(methylsulfonyl)phenyl)-3-phenyl-2-(5H)-furanone], the IC50 was 170 nM at Cox-2 and above 30000 nM at Cox-1. Further, the ED30 with Rat Paw Edema worked out at 0.26 mg/kg.
